According to paper PMC7213079, “Hit Identification of New Potent PqsR Antagonists as Inhibitors of Quorum Sensing in Planktonic and Biofilm Grown Pseudomonas aeruginosa” (Frontiers in Chemistry, 2020):
“Also recorded” adds a separate entry of the source.

Assays:
Format in all cases: cell-based, Pseudomonas aeruginosa
[1] = system: PAO1-L biofilm cultures; assay: AQ quantification in biofilm cultures; conditions: M9 minimal medium, 10 μM, 18 h, versus DMSO control
Description: Biofilms are a major challenge in the treatment of chronic P. aeruginosa infections because of their resilience and protection of bacteria from environmental stresses such as those posed by the host immune system and antimicrobial agents (Flemming et al., [2007]; Rybtke et al., [2015]). Many genes that are involved in biofilm formation are directly linked to pqs QS signaling (Rampioni et al., [2016]; Lin et al., [2018]). To evaluate the effect of 40 on AQ signaling in biofilm cultures, PAO1-L was grown in M9 minimal medium and challenged with either DMSO control or of 40 (10 μM). Following incubation and cell removal, supernatants were subjected to LC/MS-MS analysis.
Figure 6 Quantification of AQ concentrations in PAO1-L biofilm cultures treated with 40 (10 μM). […] Biofilms were grown in M9 minimal medium for 18 h in 24-well glass bottom plates and supernatants extracted for AQ analysis. […]
(§1) screening of the LC eluent for specific AQ analytes. Where chromatographic peaks for HHQ and PQS were detected, a peak area was determined and analyte peak area/internal standard peak area calculated.
(§2) AQ quantification in biofilm cultures: […]
(§3) For this experiment, the P. aeruginosa PAO1-L strain and M9 minimal medi um were used. […] The supernatant was col lected and the AQ extraction and quantification were performed following the LC MS/MS protocol described above . […]

[2] = system: PAO1-L; assay: AQ (HHQ, PQS) quantification by LC-MS/MS in planktonic cultures, PAO1-L; conditions: 3 x IC50
Procedure: (§4) Since PqsR controls expression of the pqsABCDE operon encoding the enzymes required for different stages of AQ biosynthesis, quantification of HHQ, and PQS provides a direct measurement for inhibition of the biosynthetic pathway. Compound 40 was evaluated for its effect on AQ biosynthesis at a concentration three times the corresponding IC50 values for PAO1-L and PA14.
(§5) Figure 5 Effect of compound 40 on AQ production: Quantification of AQ concentrations after treatment with the PqsR inhibitor 40 at 3x IC50 value for PAO1-L and PA14 each strain. The graph represents the average of three independent experiments carried out in triplicate (n = 9) for both strains.
(§6) For each test sample, 100µl of sterile filtered supernatant (the same preparation as for pyocyanin) was spiked with 10µl of an internal standard solution (10µM d4-PQS in MeOH), and diluted with water to a total volume of 500µl. […]
as §1, §2, §3

[3] = system: PA14; assay: AQ (HHQ, PQS) quantification by LC-MS/MS in planktonic cultures, PA14; conditions: 3 x IC50
Procedure: as §4, §5, §6, §1, §2, §3

Cn1c2ccccc2c2nnc(SCC(=O)Nc3ccc(Oc4ccccn4)cc3)nc21 [Compound 40, 2-((5-Methyl-5H-[1,2,4]triazino[5,6-b]indol-3-yl)thio)-N-(4-(pyridin-2-yloxy)phenyl)acetamide]
biosynthesis of AQ signals in biofilm cultures [1]: effectively inhibit; also recorded: drastically reduced | production of HHQ and PQS [2]: substantially reduce | production of HHQ and PQS [3]: substantially reduce
